Assays:
FasRL106F = FasRL106F (Mycobacterium tuberculosis, UniProt O05858, L106F); type: biochemical
FasRLVL = FasRLVL (Mycobacterium tuberculosis, UniProt O05858, L106F/L185F/V163F); type: biochemical
FasRF123A = FasRF123A (Mycobacterium tuberculosis, UniProt O05858, F123A); type: binding

With `CCCCCCCCCCCCCCCCCCCC(=O)SCCNC(=O)CCNC(=O)[C@H](O)C(C)(C)COP(=O)(O)OP(=O)(O)OC[C@H]1O[C@@H](n2cnc3c(N)ncnc32)[C@H](O)[C@@H]1OP(=O)(O)O` [C20-CoA, arachidoyl-CoA] the “acyl-CoA concentration at which the protein–DNA complex dissociates” value (FasRL106F) was over 4 µM, the “protein–DNA complex in the presence of ligand” value (FasRLVL) was “remained bound to DNA” and the “SPR association of FasRF123A to C20-CoA compared with FasRwt” value (FasRF123A) was “comparable association kinetics”.
